The results in this text go back to ChEMBL document CHEMBL5042512 (Eur J Med Chem, 2022).

Common to all, as to type: functional, cell-based
One assay concerns KYSE-450. The assay is described as follows: Antiproliferative activity against human KYSE-450 cells assessed as cell growth inhibition measured after 48 hrs by CCK8 assay. Conditions: KYSE-450, 48 h. In general terms: Tetrazolium dyes change colour on reduction, which living cells bring about.
Another assay concerns HCT-116. As to the kind of experiment: Antiproliferative activity against human HCT-116 cells assessed as cell growth inhibition measured after 48 hrs by CCK8 assay. The settings on record: HCT-116, 48 h.
A further assay has as its system MGC-803. The assay is described as follows: Antiproliferative activity against human MGC-803 cells assessed as cell growth inhibition measured after 48 hrs by CCK8 assay. Conditions: MGC-803, 48 h.

Structures are written as SMILES. pIC50: −log10 of the molar value. Some results are limits rather than exact numbers.

A word on the pIC50: it is −log10 of the IC50, conventionally taken in molar units. On to `COc1ccc(CN(C(=O)CSC(=S)N2CCCc3cc(C)ccc32)c2cc(OC)c(OC)c(OC)c2)cc1`, for which the negative logarithm of the IC50 (pIC50) is 5.28 with KYSE-450, 5.28 in the assay on HCT-116 and 5.19 with MGC-803.
For `COc1ccc(CN(C(=O)CSC(=S)N2CCN(C(=O)OC(C)(C)C)CC2)c2cc(OC)c(OC)c(OC)c2)cc1[N+](=O)[O-]`, the pIC50 in the assay on KYSE-450 was 6.09; in the assay on HCT-116 it was 6.01; in the assay with MGC-803 it was 6.06.
For `COc1ccc(CN(C(=O)CSC(=S)N2CCN(C(=O)OC(C)(C)C)CC2)c2cc(OC)c(OC)c(OC)c2)cc1C`, in that order: under 4.70, under 4.70 and under 4.70.
For `COc1ccc(CN(C(=O)CSC(=S)N2CCN(C(=O)OC(C)(C)C)CC2)c2cc(OC)c(OC)c(OC)c2)cc1N`, in that order: 6.68, 6.45 and 6.74.
For `COc1ccc(CN(C(=O)CSC(=S)N2CCN(C(=O)OC(C)(C)C)CC2)c2cc(OC)c(OC)c(OC)c2)cc1`, in that order: 6.60, 6.21 and 6.51.
`COc1ccc(CN(C(=O)CSC(=S)N2CCN(C)CC2)c2cc(OC)c(OC)c(OC)c2)cc1O`: the pIC50 in the assay on KYSE-450 was 6.12; in the assay with HCT-116, 6.09; with MGC-803, 6.07.
`COc1ccc(CN(C(=O)CSC(=S)N2CCc3ccccc3C2)c2cc(OC)c(OC)c(OC)c2)cc1`: the negative-log IC50 (pIC50) in the assay on KYSE-450 is under 4.70; in the assay on HCT-116 it was 4.80; in the assay on MGC-803, 5.23.
For `COc1cc(NC(=O)CSC(=S)N2CCN(C(=O)OC(C)(C)C)CC2)c(Cc2ccccc2)c(OC)c1OC`, in that order: under 4.70, 4.80 and under 4.70.
For `COc1ccc(CN(C(=O)CSC(=S)N2CCN(C(=O)OC(C)(C)C)CC2)c2ccc(C)cc2)cc1`, in that order: under 4.70, under 4.70 and under 4.70.
For the compound `CCN1CCN(C(=S)SCC(=O)N(Cc2ccc(OC)cc2)c2cc(OC)c(OC)c(OC)c2)CC1`, the pIC50 in the assay with KYSE-450 is 5.51; with HCT-116 it was 5.11; in the assay on MGC-803, 5.00.
For `COc1ccc(CN(C(=O)CSC(=S)N2CCc3cc(OC)ccc32)c2cc(OC)c(OC)c(OC)c2)cc1`, in that order: 4.99, 5.01 and 4.93.
For `CCN1CCN(CC(=O)N(Cc2ccc(OC)cc2)c2cc(OC)c(OC)c(OC)c2)CC1`, in that order: 4.79, under 4.70 and under 4.70.
For `COc1ccc(CN(C(=O)CSC(=S)N2CCN(C(=O)OC(C)(C)C)CC2)c2cc(OC)c(OC)c(OC)c2)cc1OC`, in that order: under 4.70, under 4.70 and under 4.70.
`COc1cc(N(Cc2ccc(Cl)cc2)C(=O)CSC(=S)N2CCN(C(=O)OC(C)(C)C)CC2)cc(OC)c1OC`: the results for the negative logarithm of the IC50 (pIC50) with KYSE-450, with HCT-116 and with MGC-803 were 4.92, 5.07 and 4.89, respectively.
For `COc1ccc(CN(C(=O)CSC(=S)N2CCc3cc(Br)ccc32)c2cc(OC)c(OC)c(OC)c2)cc1`, in that order: under 4.70, 5.09 and under 4.70.
With `COc1ccc(CN(C(=O)CSC(=S)N2CCN(C)CC2)c2cc(OC)c(OC)c(OC)c2)cc1`, the negative logarithm of the IC50 (pIC50) in the assay on KYSE-450 is 5.90; with HCT-116, 5.58; in the assay with MGC-803, 5.89.
Take `COc1ccc(CN(C(=O)CN2CCN(C(=O)OC(C)(C)C)CC2)c2cc(OC)c(OC)c(OC)c2)cc1`: the values for the pIC50 with KYSE-450, in the assay with HCT-116 and with MGC-803 were 5.09, 4.74 and 5.02, respectively.
On to `COc1cc2c(c(OC)c1OC)-c1ccc(OC)c(=O)cc1[C@@H](NC(C)=O)CC2` [COLCHICINE], for which the negative logarithm of the IC50 (pIC50) with KYSE-450 is 6.66; in the assay on MGC-803 it was 7.05.
For `COc1ccc(CN(C(=O)CSC(=S)N2CCN(C(=O)OC(C)(C)C)CC2)c2ccccc2)cc1`, the negative-log IC50 (pIC50) with KYSE-450, in the assay on HCT-116 and in the assay with MGC-803 was under 4.70 in each case.
`COc1ccc(CN(C(=O)CSC(=S)N2CCN(C(C)=O)CC2)c2cc(OC)c(OC)c(OC)c2)cc1`: the pIC50 in the assay with KYSE-450 was 6.43; in the assay on HCT-116, 5.86; in the assay with MGC-803 it was 6.32.
Regarding `COc1ccc(CN(C(=O)CSC(=S)N2CCN(C(=O)OC(C)(C)C)CC2)c2ccc(Cl)cc2)cc1`, the pIC50 in the assay with KYSE-450, in the assay on HCT-116 and with MGC-803 was under 4.70 throughout.
For `COc1ccc(CN(C(=O)CSC(=S)N2CCN(C(=O)OC(C)(C)C)CC2)c2ccc(Br)cc2)cc1`, the negative-log IC50 (pIC50) with KYSE-450, with HCT-116 and with MGC-803 was under 4.70 in each case.
As to `COc1ccc(CN(C(=O)CSC(=S)N2CCN(C(C)=O)CC2)c2cc(OC)c(OC)c(OC)c2)cc1O`, the pIC50 is 6.68 with KYSE-450, 6.11 in the assay with HCT-116 and 6.51 in the assay on MGC-803.
For `COc1cc(N(Cc2ccc(C)cc2)C(=O)CSC(=S)N2CCN(C(=O)OC(C)(C)C)CC2)cc(OC)c1OC`, in that order: under 4.70, under 4.70 and 4.78.
For `COc1ccc(CN(C(=O)CSC(=S)N2CCN(C(=O)OC(C)(C)C)CC2)c2cc(OC)c(OC)c(OC)c2)cc1Br`, in that order: 5.73, 5.01 and 5.43.
As for `COc1ccc(CN(C(=O)CSC(=S)N2CCOCC2)c2cc(OC)c(OC)c(OC)c2)cc1`, the negative-log IC50 (pIC50) in the assay on KYSE-450 is 5.14; with HCT-116, 5.38; with MGC-803, 5.63.
For `COc1ccc(CN(C(=O)CSC(=S)N2CCN(C(=O)OC(C)(C)C)CC2)c2ccc(OC)cc2)cc1`, in that order: under 4.70, under 4.70 and under 4.70.
For `COc1ccc(CN(C(=O)CN2CCN(C(C)=O)CC2)c2cc(OC)c(OC)c(OC)c2)cc1`, in that order: 4.97, under 4.70 and 4.89.
As to `COc1ccc(CN(C(=O)CSC(=S)N2CCN(C(=O)OC(C)(C)C)CC2)c2cc(OC)c(OC)c(OC)c2)cc1F`, the results for the pIC50 with KYSE-450, in the assay on HCT-116 and in the assay on MGC-803 were 5.62, 5.09 and 5.31, respectively.
For `CCN1CCN(C(=S)SCC(=O)N(Cc2ccc(OC)c(O)c2)c2cc(OC)c(OC)c(OC)c2)CC1`, in that order: 6.49, 6.28 and 6.42.
For `COc1ccc(CN(C(=O)CN2CCOCC2)c2cc(OC)c(OC)c(OC)c2)cc1`, in that order: 4.72, under 4.70 and 4.77.
For `COc1ccc(CN(C(=O)CSC(=S)N2CCCC2)c2cc(OC)c(OC)c(OC)c2)cc1`, in that order: 4.86, 5.30 and under 4.70.
`COc1ccc(CN(C(=O)CSC(=S)N2CCCc3cc(OC)ccc32)c2cc(OC)c(OC)c(OC)c2)cc1`: the pIC50 was 5.26 in the assay with KYSE-450, under 4.70 in the assay on HCT-116 and 5.09 in the assay on MGC-803.
Take `COc1ccc(CN(C(=O)CSC(=S)N2CCc3ccccc32)c2cc(OC)c(OC)c(OC)c2)cc1`: the pIC50 with KYSE-450 was 5.16; with HCT-116, 5.11; in the assay with MGC-803, 5.08.
Take `COc1ccc(CN(C(=O)CSc2nc3ccccc3o2)c2cc(OC)c(OC)c(OC)c2)cc1`: the negative logarithm of the IC50 (pIC50) in the assay with KYSE-450 was 6.08; with HCT-116, 5.48.
For `COc1ccc(CN(C(=O)CSC(=S)N2CCN(Cc3ccc(C(C)(C)C)cc3)CC2)c2cc(OC)c(OC)c(OC)c2)cc1`, the values for the pIC50 with KYSE-450, in the assay on HCT-116 and in the assay on MGC-803 were 5.67, 5.16 and 5.27, respectively.
For `COc1ccc(CN(C(=O)CSC(=S)N2CCN(C(=O)OC(C)(C)C)CC2)c2cc(OC)c(OC)c(OC)c2)cc1N=[N+]=[N-]`, in that order: 6.08, 6.11 and 6.09.
For `COc1cc(N(Cc2ccc(Br)cc2)C(=O)CSC(=S)N2CCN(C(=O)OC(C)(C)C)CC2)cc(OC)c1OC`, in that order: 4.97, 4.94 and 4.91.
